Species on record: Rattus norvegicus
Test: DrugMatrix - Regimen: Daily Repeat
Assay type: toxicity, organism-based, Sprague-Dawley
Parameters: regimen Daily Repeat, gender Male, age 6-8 weeks
Conditions: in vivo, po, route oral GAVAGE, […]; for ABSOLUTE BASOPHIL / ABSOLUTE EOSINOPHIL / ABSOLUTE LYMPHOCYTE / ABSOLUTE MONOCYTE / ABSOLUTE SEGMENTED NEUTROPHIL / BASOPHIL / EOSINOPHIL / ERYTHROCYTE COUNT / HEMATOCRIT / HEMOGLOBIN / LEUKOCYTE COUNT / LYMPHOCYTE / MEAN CORPUSCULAR HEMOGLOBIN / MEAN CORPUSCULAR HEMOGLOBIN CONCENTRATION / MEAN CORPUSCULAR VOLUME / MONOCYTE / NEUTROPHIL / NUCLEATED RED BLOOD CELLS / PLATELET COUNT: tissue Blood; for ALANINE AMINOTRANSFERASE / ALBUMIN / ALKALINE PHOSPHATASE / ASPARTATE AMINOTRANSFERASE / BLOOD UREA NITROGEN / CARBON DIOXIDE / CHLORIDE / CHOLESTEROL / CREATINE PHOSPHOKINASE / CREATININE / GLUCOSE / LACTATE DEHYDROGENASE / LIPASE / PHOSPHORUS / POTASSIUM / SODIUM / TOTAL BILIRUBIN / TOTAL PROTEIN / URIC ACID: tissue Plasma
[1] = 0 mg/kg, 72 h, dose level Control, time 3 day
[2] = 0 mg/kg, 120 h, dose level Control, time 5 day
[3] = 35 mg/kg, 72 h, dose level Low, time 3 day
[4] = 35 mg/kg, 120 h, dose level Low, time 5 day

## CC(=O)Oc1ccccc1C(=O)O [ASPIRIN]
[1]
  ABSOLUTE BASOPHIL: 0 CELLS/uL
  ABSOLUTE EOSINOPHIL: 0 CELLS/uL
  ABSOLUTE LYMPHOCYTE: 6275.67 CELLS/uL
  ABSOLUTE MONOCYTE: 40.67 CELLS/uL
  ABSOLUTE SEGMENTED NEUTROPHIL: 633.67 CELLS/uL
  BASOPHIL: 0%
  EOSINOPHIL: 0%
  ERYTHROCYTE COUNT: 5.2 x10E6/uL
  HEMATOCRIT: 32.78%
  HEMOGLOBIN: 12.98 G/DL
  LEUKOCYTE COUNT: 6.95 x10E3/uL
  LYMPHOCYTE: 90.17%
  MEAN CORPUSCULAR HEMOGLOBIN: 24.97 pg
  MEAN CORPUSCULAR HEMOGLOBIN CONCENTRATION: 39.62 G/DL
  MEAN CORPUSCULAR VOLUME: 63.03 fL
  MONOCYTE: 0.67%
  NEUTROPHIL: 9.17%
  NUCLEATED RED BLOOD CELLS: 0 /100WBC
  PLATELET COUNT: 1082.83 x10E3/uL
  ALANINE AMINOTRANSFERASE: 69.67 u/L
  ALBUMIN: 4.15 G/DL
  ALKALINE PHOSPHATASE: 430.5 u/L
  ASPARTATE AMINOTRANSFERASE: 90.83 u/L
  BLOOD UREA NITROGEN: 13 mg/dL
  CARBON DIOXIDE: 33 mmol/L
  CHLORIDE: 99.17 MEQ/L
  CHOLESTEROL: 70.5 mg/dL
  CREATINE PHOSPHOKINASE: 253.33 u/L
  CREATININE: 0.13 mg/dL
  GLUCOSE: 157.17 mg/dL
  LACTATE DEHYDROGENASE: 85 u/L
  LIPASE: 10 u/L
  PHOSPHORUS: 10.2 mg/dL
  POTASSIUM: 5.78 MEQ/L
  SODIUM: 144.12 MEQ/L
  TOTAL BILIRUBIN: 0.2 mg/dL
  TOTAL PROTEIN: 5.8 G/DL
  URIC ACID: 0.8 mg/dL
[2]
  ABSOLUTE BASOPHIL: 0 CELLS/uL
  ABSOLUTE EOSINOPHIL: 0 CELLS/uL
  ABSOLUTE LYMPHOCYTE: 10431 CELLS/uL
  ABSOLUTE MONOCYTE: 90.5 CELLS/uL
  ABSOLUTE SEGMENTED NEUTROPHIL: 1111.83 CELLS/uL
  BASOPHIL: 0%
  EOSINOPHIL: 0%
  ERYTHROCYTE COUNT: 5.51 x10E6/uL
  HEMATOCRIT: 34.67%
  HEMOGLOBIN: 13.5 G/DL
  LEUKOCYTE COUNT: 11.63 x10E3/uL
  LYMPHOCYTE: 89.67%
  MEAN CORPUSCULAR HEMOGLOBIN: 24.5 pg
  MEAN CORPUSCULAR HEMOGLOBIN CONCENTRATION: 38.95 G/DL
  MEAN CORPUSCULAR VOLUME: 62.87 fL
  MONOCYTE: 0.67%
  NEUTROPHIL: 9.67%
  NUCLEATED RED BLOOD CELLS: 0 /100WBC
  PLATELET COUNT: 1052.67 x10E3/uL
  ALANINE AMINOTRANSFERASE: 54.67 u/L
  ALBUMIN: 4.15 G/DL
  ALKALINE PHOSPHATASE: 359.83 u/L
  ASPARTATE AMINOTRANSFERASE: 83 u/L
  BLOOD UREA NITROGEN: 13.5 mg/dL
  CARBON DIOXIDE: 27.17 mmol/L
  CHLORIDE: 98.5 MEQ/L
  CHOLESTEROL: 66.83 mg/dL
  CREATINE PHOSPHOKINASE: 256.17 u/L
  CREATININE: 0.19 mg/dL
  GLUCOSE: 171.33 mg/dL
  LACTATE DEHYDROGENASE: 91.5 u/L
  LIPASE: 10.5 u/L
  PHOSPHORUS: 8.72 mg/dL
  POTASSIUM: 5.34 MEQ/L
  SODIUM: 142.53 MEQ/L
  TOTAL BILIRUBIN: 0.2 mg/dL
  TOTAL PROTEIN: 6.05 G/DL
  URIC ACID: 0.6 mg/dL
[3]
  ABSOLUTE BASOPHIL: 0 CELLS/uL
  ABSOLUTE EOSINOPHIL: 58.67 CELLS/uL
  ABSOLUTE LYMPHOCYTE: 9448 CELLS/uL
  ABSOLUTE MONOCYTE: 29.33 CELLS/uL
  ABSOLUTE SEGMENTED NEUTROPHIL: 530.67 CELLS/uL
  BASOPHIL: 0%
  EOSINOPHIL: 0.67%
  ERYTHROCYTE COUNT: 4.69 x10E6/uL
  HEMATOCRIT: 30.17%
  HEMOGLOBIN: 12.1 G/DL
  LEUKOCYTE COUNT: 10.07 x10E3/uL
  LYMPHOCYTE: 93.33%
  MEAN CORPUSCULAR HEMOGLOBIN: 25.83 pg
  MEAN CORPUSCULAR HEMOGLOBIN CONCENTRATION: 40.1 G/DL
  MEAN CORPUSCULAR VOLUME: 64.4 fL
  MONOCYTE: 0.33%
  NEUTROPHIL: 5.67%
  NUCLEATED RED BLOOD CELLS: 0 /100WBC
  PLATELET COUNT: 951 x10E3/uL
  ALANINE AMINOTRANSFERASE: 86 u/L
  ALBUMIN: 4.17 G/DL
  ALKALINE PHOSPHATASE: 369 u/L
  ASPARTATE AMINOTRANSFERASE: 104.67 u/L
  BLOOD UREA NITROGEN: 13.5 mg/dL
  CARBON DIOXIDE: 32 mmol/L
  CHLORIDE: 101.33 MEQ/L
  CHOLESTEROL: 79.33 mg/dL
  CREATINE PHOSPHOKINASE: 304 u/L
  CREATININE: 0.15 mg/dL
  GLUCOSE: 156 mg/dL
  LACTATE DEHYDROGENASE: 85.33 u/L
  LIPASE: 23.33 u/L
  PHOSPHORUS: 9.53 mg/dL
  POTASSIUM: 5.79 MEQ/L
  SODIUM: 145.73 MEQ/L
  TOTAL BILIRUBIN: 0.2 mg/dL
  TOTAL PROTEIN: 5.7 G/DL
  URIC ACID: 0.53 mg/dL
[4]
  ABSOLUTE BASOPHIL: 0 CELLS/uL
  ABSOLUTE EOSINOPHIL: 0 CELLS/uL
  ABSOLUTE LYMPHOCYTE: 9532 CELLS/uL
  ABSOLUTE MONOCYTE: 142 CELLS/uL
  ABSOLUTE SEGMENTED NEUTROPHIL: 926 CELLS/uL
  BASOPHIL: 0%
  EOSINOPHIL: 0%
  ERYTHROCYTE COUNT: 5.39 x10E6/uL
  HEMATOCRIT: 34.33%
  HEMOGLOBIN: 13.4 G/DL
  LEUKOCYTE COUNT: 10.6 x10E3/uL
  LYMPHOCYTE: 90%
  MEAN CORPUSCULAR HEMOGLOBIN: 24.83 pg
  MEAN CORPUSCULAR HEMOGLOBIN CONCENTRATION: 39.03 G/DL
  MEAN CORPUSCULAR VOLUME: 63.63 fL
  MONOCYTE: 1.33%
  NEUTROPHIL: 8.67%
  NUCLEATED RED BLOOD CELLS: 0 /100WBC
  PLATELET COUNT: 1012.67 x10E3/uL
  ALANINE AMINOTRANSFERASE: 59 u/L
  ALBUMIN: 4.1 G/DL
  ALKALINE PHOSPHATASE: 356.67 u/L
  ASPARTATE AMINOTRANSFERASE: 89.33 u/L
  BLOOD UREA NITROGEN: 11.33 mg/dL
  CARBON DIOXIDE: 27.67 mmol/L
  CHLORIDE: 98.67 MEQ/L
  CHOLESTEROL: 69 mg/dL
  CREATINE PHOSPHOKINASE: 329.67 u/L
  CREATININE: 0.17 mg/dL
  GLUCOSE: 164.33 mg/dL
  LACTATE DEHYDROGENASE: 89 u/L
  LIPASE: 11.67 u/L
  PHOSPHORUS: 9.13 mg/dL
  POTASSIUM: 5.65 MEQ/L
  SODIUM: 145.03 MEQ/L
  TOTAL BILIRUBIN: 0.2 mg/dL
  TOTAL PROTEIN: 6.13 G/DL
  URIC ACID: 0.57 mg/dL
